Assays:
[1] = test system: ketamine-induced psychological disturbances in adults scheduled for elective noncardiac surgery; test: Pilot randomized, double-blind trial of lamotrigine before surgery with ketamine anesthesia; assay type: in vivo, human
Description: We report the finding of a pilot randomized and double-blind trial in which we tested the hypothesis that a single 300-mg dose of lamotrigine given a few hours before surgery reduces ketamine-induced psychological disturbances. We enrolled 46 adults (23 Lamotrigine, 23 placebo) 18-65 years who were scheduled for elective noncardiac surgery with general anesthesia with a planned overnight stay at Cleveland Clinic main campus between April 2019 and October 2019. All included patients provided written informed consent during their preoperative clinic visit. The trial was approved by Cleveland Clinic Institutional Review Board and was registered at clinicaltrails.gov [NCT03831854; PI Kamal Maheshwari; February 2019]. It was a priori defined as a pilot trial.
All patients received ketamine 1 mg/kg bolus at induction of anesthesia followed by a 5-μg/kg/min infusion which was stopped at the end of surgery. Anesthesia generally included propofol, a muscle relaxant, fentanyl, and sevoflurane. The primary outcome was presence of the psychologic disturbances measured 30-90 min after admission to the post-anesthesia care unit. We evaluated four key items of the Brief Psychiatric Rating Scale corresponding to positive symptoms of schizophrenia: conceptual disorganization, hallucinatory behavior, suspiciousness, and unusual thought content. Each symptom was rated 1-7 (1=not present, 2=very mild, 3=mild, 4=moderate, 5=moderately severe, 6=severe, 7=extremely severe). Secondary outcomes were opioid use, pain, and postoperative nausea or vomiting in the post-anesthesia care unit.

[2] = test system: psychologic disturbances associated with perioperative ketamine use; details: reported range across studies (Avidan et al. 2017); cited from earlier work
[3] = test system: ketamine-induced perceptual abnormalities in healthy subjects; details: 300 mg oral lamotrigine; cited from earlier work

| SMILES | patients who displayed psychologic disturbances ([1]; all trial patients (lamotrigine and placebo groups), moderate dose of ketamine: 1 mg/kg bolus then 5-μg/kg/min infusion) [%] | incidence of psychologic disturbances associated with perioperative ketamine use [2] | pain scores, difference in means lamotrigine vs placebo ([1]; 98.3% CI −1.7, 2.6, P=0.58) | Opioid use, median difference lamotrigine vs placebo ([1]; 98.3% CI −9.5, 5.0, P=0.63) | pain scores, mean±standard deviation ([1]; in the post-anesthesia care unit, lamotrigine 300 mg patients) | patients who experienced nausea or vomiting ([1]; in vivo) | patients with psychologic disturbances (four key items of the Brief Psychiatric Rating Scale) ([1]; single 300-mg dose of lamotrigine a few hours before surgery, ketamine 1 mg/kg bolus then 5-μg/kg/min infusion, measured 30-90 min after admission to post-anesthesia care unit, n=23) | effect on ketamine-induced perceptual abnormalities [3] |
| --- | --- | --- | --- | --- | --- | --- | --- | --- |
| CNC1(c2ccccc2Cl)CCCCC1=O (centres unmarked) [ketamine] | 6 | 7% to 27 | – | – | – | – | – | – |
| Nc1nnc(-c2cccc(Cl)c2Cl)c(N)n1 [lamotrigine] | – | – | 0.5 | −2.3 | 4.9±3.1 | Five | No patients | significantly decreased |
